Test results taken from patent EP4685142A1, “TRIAZINE COMPOUND AND USE THEREOF” (Chengdu Zenitar Biomedical Technology Co., Ltd., priority 2023, dated 2024).
Read-outs that look alike come from different tables or passages of the source.

How the values were obtained:
[1] = target: T1, hERG potassium ion channel (Homo sapiens, UniProt Q12809); experiment: Inhibition of hERG potassium ion channel (CHO cells stably expressing hERG, Qpatch)
Method: (§1) Inhibition experiment of compounds on hERG potassium ion channel
(§2) Cell culture and treatment: CHO cells stably expressing hERG were cultured in cell culture flasks and incubated in a 5% CO2 incubator at 37°C. When a cell density reached 60%-80%, the cell culture medium was aspirated, washed once with PBS, and then digested with Detachin. After digestion, the grown cells were neutralized in the cell culture medium, and then centrifuged, the supernatant was aspirated, the cell culture medium was added again to resuspend the grown cells, and the cell density was adjusted to 2-5×10^6 cells/mL for later use.
(§3) Compound preparation: the compound stock solution was diluted in 100% DMSO, that is, 10 µL compound stock solution was serially diluted in 20 µL DMSO by 3 folds to obtain six concentrations. Six concentrations of the compound (4 µL for each concentration) were diluted in 396 µL extracellular fluid by 100 folds to obtain six intermediate concentrations. Six intermediate concentrations of the compound (80 µL for each concentration) were diluted in 320 µL extracellular fluid by 5 folds to obtain final concentrations to be tested. […] DMSO in a final test concentration was not more than 0.2%, and DMSO at this concentration had no effect on the hERG potassium channel. The entire dilution process for compound preparation was performed using Bravo instrument.
(§4) Electrophysiological recording process: the processes of single-celled high-impedance sealing and whole-cell mode formation were all automatically completed by Qpatch instrument, under the whole-cell recording mode, the cells were clamped at -80 mV, before 5-second + 40 mV depolarization stimulus, the cells were given 50-millisecond - 50 mV pre-voltage, followed by repolarization to -50 mV for 5 seconds, and then returning to -80 mV. The voltage stimulus was given every 15 seconds, after 2 minutes of recording, extracellular fluid was recorded for 5 min, and then a drug was administrated, started from a lowest test concentration, each test concentration of the compound was given for 2.5 minutes, after all concentrations were given consecutively, a positive control compound Cisapride (3 µM) was given. At least 3 cells were tested for each concentration (n≥3).
(§5) Data processing: data analysis and processing were performed using GraphPad Prism 5.0 and Excel software. IC50 values of the compounds were calculated by fitting with the following equation using GraphPad Prism 5 software: Y = Bottom + (Top−Bottom)/(1+10^(∧)((LogIC50−X)*HillSlope)); [formula] where X is the Log value of the test sample concentration, Y is an inhibition percentage at a corresponding concentration, and Bottom and Top are the minimum and maximum inhibition percentages, respectively.

[2] = target: T1, hERG potassium ion channel
Method: as §1, §2, §3, §4, §5

[3] = target: T2, NLRP3 inflammasome (Homo sapiens, UniProt Q96P20); experiment: Inhibitory activity of NLRP3 inflammasome in human monocytes (THP-1 cells, LPS + Nigericin, IL-1β ELISA); format: cell-based
T2 construct: host or cells: THP-1 cells
Method: 1. Determination of inhibitory activity of NLRP3 inflammasome in human monocytes
Experimental method: THP-1 cells were cultured in RPMI culture medium containing PMA (10 µM), and then inoculated in 48-well plates at a density of 2×10^5 cells/mL, the plates were incubated overnight in a 5% CO2 incubator at 37°C. The next day, the above culture medium was replaced with Opti-MEM culture medium containing 1 µg/mL LPS. After 3 hours, the grown cells were simulated for 40 min with a drug, and then simulated for 40 min with Nigericin (10 µM), and a cell supernatant was harvested for ELISA analysis.
Table 2 Inhibitory activity of NLRP3 inflammasome

[4] = In vivo brain-to-plasma ratio in mice; settings: for Brain / Plasma: male mice, oral 10 mg/kg; for Kp at 1 h / Kp at 6 h: mouse, brain, po, 10 mg/kg
Method: Evaluation of in vivo brain-to-plasma ratio of compound
Experimental purpose: to obtain the brain-to-plasma ratio of the compound
Experimental protocol: the brain-to-plasma ratio of the compound was investigated by monitoring the content of the compound in mouse brain and plasma.
Experimental procedure: the compound was weighed, followed by adding a small amount of DMSO and adding a sodium chloride solution for injection, to prepare a 10 mg · mL^-1 compound solution for administration. Male mice were orally administered at 10 mg · kg^-1, and whole plasma and whole brain tissue were sampled at 1 h and 6 h after administration (n=3). […] A centrifuge tube was weighed as M1, the centrifuge tube containing the whole brain tissue was weighed as M2, the centrifuge tube containing water for homogenization was weighed as M3, and the centrifuge tube after the removal of 30 µL homogenate was weighed as M4.
Standard curve range: 10-10,000 ng·mL^-1. Content of drug in brain = measured value × 0.03 × (M3−M1)/[(M2−M1)×(M3−M4)].

[5] = In vivo distribution of cerebrospinal fluid and plasma; settings: for Cerebrospinal fluid / Plasma: intravenous 5 mg/kg, n=1; for concentration at 0.25 h / concentration at 2 h: male, iv, 5 mg/kg
Method: Evaluation of in vivo distribution of cerebrospinal fluid and plasma after compound administration
Experimental procedure: the compound was weighed, followed by adding a small amount of DMSO and then adding a sodium chloride solution for injection, to prepare a 5 mg·mL^-1 compound solution for administration. […] Standard curve range: 1-1000 ng·mL^-1.

[6] = Pharmacokinetic evaluation in Balb/c mice; format: in vivo; settings: mouse, in vivo, 5 mg/kg
Excerpt: 4. Pharmacokinetic evaluation of compounds in Balb/c mice
Experimental purpose: to understand pharmacokinetic properties of the compounds.
Experimental basis: Technical Guidelines for Nonclinical Pharmacokinetic Studies of Chemical Drugs, 2014.
Experimental protocol: the pharmacokinetic properties of the compounds were investigated via intravenous administration and intragastric administration in Balb/c mice.
The blood drug concentration was quantitatively analyzed by LC-MS/MS, and pharmacokinetic parameters were calculated, such as peak concentration (Cmax), area under the concentration-time curve (AUC(0-t)), half-life (T1/2), clearance (CL), volume of distribution at steady state (Vdss), and bioavailability (F).
The results of pharmacokinetic evaluation are shown in Table 5 below: Table 5 Pharmacokinetic test results of compounds in Balb/c mice

[7] = tested on: LPS-induced mice; experiment: LPS-induced mouse model, survival; format: in vivo, Balb/c mice; settings: for 72h Survival rate: 25 mg/kg oral, 1 h before 10 mg/kg LPS i.p.; for survival status of mice (mice alive) 12h / survival status of mice (mice alive) 24h / survival status of mice (mice alive) 36h / survival status of mice (mice alive) 48h / survival status of mice (mice alive) 72h: 25 mg/kg
[8] = THP-1 cells, PMA, LPS 1 µg/mL 3 h, drug 40 min, Nigericin 10 µM 40 min, IL-1β ELISA, read-out: IC50
[9] = PO, Balb/c mice, read-out: AUC(0-t)
[10] = PO, Balb/c mice, read-out: Cmax
[11] = PO, Balb/c mice, read-out: T1/2 (converted)

T1 sequence (Q12809 whole entry): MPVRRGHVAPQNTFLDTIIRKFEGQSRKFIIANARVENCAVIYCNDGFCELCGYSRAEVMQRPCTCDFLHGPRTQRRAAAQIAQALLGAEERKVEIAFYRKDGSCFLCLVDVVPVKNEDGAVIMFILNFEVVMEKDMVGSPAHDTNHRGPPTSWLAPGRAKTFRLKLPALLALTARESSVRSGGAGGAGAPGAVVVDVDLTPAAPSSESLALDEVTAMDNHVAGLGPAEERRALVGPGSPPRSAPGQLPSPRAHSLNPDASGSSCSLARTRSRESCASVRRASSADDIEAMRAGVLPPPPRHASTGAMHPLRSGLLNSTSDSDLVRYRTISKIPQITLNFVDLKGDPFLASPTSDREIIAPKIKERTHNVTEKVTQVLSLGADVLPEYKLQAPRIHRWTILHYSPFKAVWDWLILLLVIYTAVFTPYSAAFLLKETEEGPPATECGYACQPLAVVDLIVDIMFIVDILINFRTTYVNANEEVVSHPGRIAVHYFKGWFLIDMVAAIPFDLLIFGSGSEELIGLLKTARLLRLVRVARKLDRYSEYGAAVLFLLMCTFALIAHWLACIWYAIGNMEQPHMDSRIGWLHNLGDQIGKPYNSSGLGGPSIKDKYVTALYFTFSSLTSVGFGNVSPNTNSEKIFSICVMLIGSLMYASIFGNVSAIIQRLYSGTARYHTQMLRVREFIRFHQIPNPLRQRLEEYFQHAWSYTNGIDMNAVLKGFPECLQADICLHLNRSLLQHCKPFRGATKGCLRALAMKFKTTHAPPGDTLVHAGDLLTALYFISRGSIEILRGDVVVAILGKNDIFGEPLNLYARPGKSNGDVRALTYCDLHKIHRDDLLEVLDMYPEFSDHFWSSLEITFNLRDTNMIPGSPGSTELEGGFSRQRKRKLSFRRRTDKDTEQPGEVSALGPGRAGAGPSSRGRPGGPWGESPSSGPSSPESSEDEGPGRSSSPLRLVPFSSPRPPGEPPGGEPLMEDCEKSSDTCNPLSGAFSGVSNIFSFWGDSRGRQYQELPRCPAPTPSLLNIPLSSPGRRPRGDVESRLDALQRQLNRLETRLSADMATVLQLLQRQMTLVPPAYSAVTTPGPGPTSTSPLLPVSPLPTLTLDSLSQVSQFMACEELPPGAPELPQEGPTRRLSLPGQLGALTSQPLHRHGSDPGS
T2 sequence (Q96P20 whole entry): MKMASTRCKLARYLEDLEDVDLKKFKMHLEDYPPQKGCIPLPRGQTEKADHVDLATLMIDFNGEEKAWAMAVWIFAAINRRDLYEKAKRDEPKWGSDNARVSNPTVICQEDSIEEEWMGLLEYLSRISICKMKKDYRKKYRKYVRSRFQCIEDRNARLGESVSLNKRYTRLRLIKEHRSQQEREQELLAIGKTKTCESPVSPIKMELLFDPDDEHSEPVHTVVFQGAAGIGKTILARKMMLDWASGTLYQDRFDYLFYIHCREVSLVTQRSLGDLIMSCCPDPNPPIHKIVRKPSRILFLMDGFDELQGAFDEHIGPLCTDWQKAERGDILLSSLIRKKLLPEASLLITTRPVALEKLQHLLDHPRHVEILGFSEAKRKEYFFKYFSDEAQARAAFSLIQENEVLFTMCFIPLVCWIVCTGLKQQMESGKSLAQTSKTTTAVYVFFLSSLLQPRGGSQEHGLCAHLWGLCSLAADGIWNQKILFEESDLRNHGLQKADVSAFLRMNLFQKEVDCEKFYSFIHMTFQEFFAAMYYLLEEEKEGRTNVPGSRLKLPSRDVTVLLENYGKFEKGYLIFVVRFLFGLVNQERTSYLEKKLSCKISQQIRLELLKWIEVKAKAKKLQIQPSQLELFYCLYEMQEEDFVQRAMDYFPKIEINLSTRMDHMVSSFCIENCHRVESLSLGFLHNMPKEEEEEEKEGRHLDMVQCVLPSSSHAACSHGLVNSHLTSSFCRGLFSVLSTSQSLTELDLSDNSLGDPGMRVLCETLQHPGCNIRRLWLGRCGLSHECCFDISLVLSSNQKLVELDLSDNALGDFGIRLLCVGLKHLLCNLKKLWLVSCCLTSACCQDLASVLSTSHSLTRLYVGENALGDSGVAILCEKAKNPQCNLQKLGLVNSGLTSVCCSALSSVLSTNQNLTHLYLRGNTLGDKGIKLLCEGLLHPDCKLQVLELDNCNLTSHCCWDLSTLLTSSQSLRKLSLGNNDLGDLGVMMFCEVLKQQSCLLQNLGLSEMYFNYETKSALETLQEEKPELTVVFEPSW

SMILES | 20 uM Inhibition ratio [1] | inhibitory effects on the hERG potassium ion channel (conclusion in words) ([2]; human) | IC50 [3, 8] | inhibitory effects on the hERG potassium ion channel (conclusion in words) [2] | Cerebrospinal fluid ([5]; 0.25h) | Plasma ([5]; 0.25h) | Cerebrospinal fluid ([5]; 2h) | Plasma ([5]; 2h) | AUC(0-t) [6, 9] | Cmax [6, 10] | half-life [6, 11] | IC50 [3] | other results
C#Cc1ccc(-c2nnc(N[C@@H]3CCCN(C)C3)c(=O)n2C)c(O)c1 [Compound 24, (R)-3-(4-ethynyl-2-hydroxyphenyl)-4-methyl-6-((1-methylpiperidin-3-yl)amino)-1,2,4-triazin-5(4H)-ketone] | 6.83% | Conclusion: compounds 3, 4, 5, 9, 16, 17, 24, 30, 40, 41, 42, 43, 54 and others have weak inhibitory effects on the hERG potassium ion channel, having weaker inhibitory effect than the reference compound Ref-1. | 12 nM |  |  |  |  |  |  |  |  |  | 
CCn1c(-c2ccc3sccc3c2O)nnc(N[C@@H]2CCCN(C)C2)c1=O [Compound 17, (R)-4-ethyl-3-(4-hydroxybenzo[b]thiophen-5-yl)-6-[(1-methylpiperidin-3-yl)amino]-1,2,4-tria zin-5(4H)-ketone] | 22.83% |  |  | Conclusion: compounds 3, 4, 5, 9, 16, 17, 24, 30, 40, 41, 42, 43, 54 and others have weak inhibitory effects on the hERG potassium ion channel, having weaker inhibitory effect than the reference compound Ref-1. | 47 ng/g | 713 ng/mL | 25 ng/g | 590 ng/mL | 17800 ng·h/mL | 1850 ng/mL | 252 min | 3.19 nM | Brain ([4]; 1 h): 745 ng/g; Plasma ([4]; 1 h): 5243 ng/mL; Brain ([4]; 6 h): 290 ng/g; Plasma ([4]; 6 h): 1872 ng/mL; Kp at 1 h [4]: 0.14; Kp at 6 h [4]: 0.16
CCn1c(-c2ccc3sccc3c2O)nnc(N[C@@H]2C[C@@H](F)CN(C)C2)c1=O [Compound 43, 4-ethyl-6-(((3R,5R)-5-fluoro-1-methylpiperidin-3-yl)amino)-3-(4-hydroxybenzo[b]thiophen-5-yl)-1,2,4-triazin-5(4H)-ketone] | 14.23% |  |  | Conclusion: compounds 3, 4, 5, 9, 16, 17, 24, 30, 40, 41, 42, 43, 54 and others have weak inhibitory effects on the hERG potassium ion channel, having weaker inhibitory effect than the reference compound Ref-1. | 151 ng/g | 6797 ng/mL | 40 ng/g | 1911 ng/mL | 15700 ng·h/mL | 5070 ng/mL | 135 min | 5.66 nM | distribution concentrations in cerebrospinal fluid / brain penetration potential (conclusion in words) ([5]; mouse, in vivo): Conclusion: some compounds of the present invention have good brain penetration potential, and particularly, compounds 40, 43 and others have high distribution concentrations in cerebrospinal fluid.
CCN1C[C@H](F)C[C@@H](Nc2nnc(-c3ccc4sccc4c3O)n(C)c2=O)C1 [Compound 41, 6-(((3R,5R)-1-ethyl-5-fluoropiperidin-3-yl)amino)-3-(4-hydroxybenzo[b]thiophen-5-yl)-4-me thyl-1,2,4-triazin-5(4H)-ketone] | 13.31% |  |  | Conclusion: compounds 3, 4, 5, 9, 16, 17, 24, 30, 40, 41, 42, 43, 54 and others have weak inhibitory effects on the hERG potassium ion channel, having weaker inhibitory effect than the reference compound Ref-1. | 67 ng/g | 668 ng/mL | 1 ng/g | 38 ng/mL |  |  |  | 2.02 nM | 72h Survival rate [7]: 100%; survival status of mice (mice alive) 12h ([7]; First cage (5 mice)): 5; survival status of mice (mice alive) 24h ([7]; First cage (5 mice)): 5; survival status of mice (mice alive) 36h ([7]; First cage (5 mice)): 5; survival status of mice (mice alive) 48h ([7]; First cage (5 mice)): 5; survival status of mice (mice alive) 72h ([7]; First cage (5 mice)): 5; survival status of mice (mice alive) 12h ([7]; Second cage (5 mice)): 5; survival status of mice (mice alive) 24h ([7]; Second cage (5 mice)): 5; survival status of mice (mice alive) 36h ([7]; Second cage (5 mice)): 5; survival status of mice (mice alive) 48h ([7]; Second cage (5 mice)): 5; survival status of mice (mice alive) 72h ([7]; Second cage (5 mice)): 5
Cn1c(-c2ccc3sccc3c2O)nnc(N[C@@H]2CCCN(CCO)C2)c1=O [Compound 9, (R)-3-(4-hydroxybenzo[b]thiophen-5-yl)-6-((1-(2-hydroxyethyl)piperidin-3-yl)amino)-4-methyl-1,2,4-triazin-5(4H)-ketone] | 8.83% |  |  | Conclusion: compounds 3, 4, 5, 9, 16, 17, 24, 30, 40, 41, 42, 43, 54 and others have weak inhibitory effects on the hERG potassium ion channel, having weaker inhibitory effect than the reference compound Ref-1. |  |  |  |  | 4400 ng·h/mL | 2280 ng/mL | 51 min | 3.95 nM | 72h Survival rate [7]: 70%; survival status of mice (mice alive) 12h ([7]; First cage (5 mice)): 5; survival status of mice (mice alive) 24h ([7]; First cage (5 mice)): 5; survival status of mice (mice alive) 36h ([7]; First cage (5 mice)): 5; survival status of mice (mice alive) 48h ([7]; First cage (5 mice)): 5; survival status of mice (mice alive) 72h ([7]; First cage (5 mice)): 3; survival status of mice (mice alive) 12h ([7]; Second cage (5 mice)): 5; survival status of mice (mice alive) 24h ([7]; Second cage (5 mice)): 5; survival status of mice (mice alive) 36h ([7]; Second cage (5 mice)): 5; survival status of mice (mice alive) 48h ([7]; Second cage (5 mice)): 5; survival status of mice (mice alive) 72h ([7]; Second cage (5 mice)): 4; Plasma ([4]; 1 h): 1830 ng/mL; Plasma ([4]; 6 h): 46 ng/mL; Kp at 1 h [4]: 0.04; Kp at 6 h [4]: 0.46
CCN1C[C@H](F)C[C@@H](Nc2nnc(-c3ccc4sccc4c3O)n(CC)c2=O)C1 [Compound 42, 4-ethyl-6-(((3R,5R)-1-ethyl-5-fluoropiperidin-3-yl)amino)-3-(4-hydroxybenzo[b]thiophen-5-y 1)-1,2,4-triazin-5(4H)-ketone] | 14.98% | Conclusion: compounds 3, 4, 5, 9, 16, 17, 24, 30, 40, 41, 42, 43, 54 and others have weak inhibitory effects on the hERG potassium ion channel, having weaker inhibitory effect than the reference compound Ref-1. | 4.76 nM |  |  |  |  |  |  |  |  |  | concentration at 0.25 h ([5]; mouse, cerebrospinal fluid): 35 ng/g; concentration at 2 h ([5]; mouse, cerebrospinal fluid): 1 ng/g; concentration at 0.25 h ([5]; mouse, plasma): 965 ng/mL; concentration at 2 h ([5]; mouse, plasma): 46 ng/mL; AUC(0-t) ([6]; male, Balb/c, po): 2500 ng·h/mL; Cmax ([6]; male, Balb/c, po): 2700 ng/mL; half-life ([6]; male, Balb/c, po): 96.6 min
Cn1c(-c2ccc3sccc3c2O)nnc(N[C@@H]2CCCC[C@H]2O)c1=O [Compound 30, 3-(4-hydroxybenzo[b]thiophen-5-yl)-6-(((1R,2R)-2-hydroxycyclohexyl)amino)-4-methyl-1,2,4-triazin-5(4H)-ketone.] | 1.70% | Conclusion: compounds 3, 4, 5, 9, 16, 17, 24, 30, 40, 41, 42, 43, 54 and others have weak inhibitory effects on the hERG potassium ion channel, having weaker inhibitory effect than the reference compound Ref-1. | 1.97 nM |  |  |  |  |  |  |  |  |  | AUC(0-t) ([6]; male, Balb/c, po): 4380 ng·h/mL; Cmax ([6]; male, Balb/c, po): 9810 ng/mL; half-life ([6]; male, Balb/c, po): 11.4 min
Cn1c(-c2ccc3sccc3c2O)nnc(N[C@@H]2CCCN(C3CC3)C2)c1=O [Compound 16, (R)-6-((1-cyclopropylpiperidin-3-yl)amino)-3-(4-hydroxybenzo[b]thiophen-5-yl)-4-methyl-1,2,4-triazin-5(4H)-ketone] | 35.63% | Conclusion: compounds 3, 4, 5, 9, 16, 17, 24, 30, 40, 41, 42, 43, 54 and others have weak inhibitory effects on the hERG potassium ion channel, having weaker inhibitory effect than the reference compound Ref-1. | 1.62 nM |  |  |  |  |  |  |  |  |  | 
Cn1c(-c2ccc3sccc3c2O)nnc(N[C@@H]2CCCN(C3CC(F)(F)C3)C2)c1=O [Compound 5, (R)-6-((1-(3,3-difluorocyclobutyl)piperidin-3-yl)amino)-3-(4-hydroxybenzo[b]thiophen-5-yl)-4-methyl-1,2,4-triazin-5(4H)-ketone] | 19.97% | Conclusion: compounds 3, 4, 5, 9, 16, 17, 24, 30, 40, 41, 42, 43, 54 and others have weak inhibitory effects on the hERG potassium ion channel, having weaker inhibitory effect than the reference compound Ref-1. | 3.56 nM |  |  |  |  |  |  |  |  |  | 
